Experimental data reported in PubChem BioAssay (NCI).
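Step 1: Grow cells in 96-well plates. Step 2: Expose to compound for 48 hours at 5 concentrations. Step 3: Interpolate endpoints linearly; if unreached, use highest concentration. Abbreviation: GI50, concentration required for 50% inhibition of growth. TGI denotes the concentration required for complete inhibition of growth.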

Legend:
Assay in all cases: NCI tumour cell line growth inhibition, 48 h
BT-549 breast = test system: BT-549 breast
RPMI-8226 leukemia = test system: RPMI-8226 leukemia
HL-60(TB) leukemia = test system: HL-60(TB) leukemia
MDA-MB-468 breast = test system: MDA-MB-468 breast
T-47D breast = test system: T-47D breast
TK-10 renal = test system: TK-10 renal
HOP-92 NSCLC = test system: HOP-92 NSCLC
OVCAR-5 ovarian = test system: OVCAR-5 ovarian
SR leukemia = test system: SR leukemia
M14 melanoma = test system: M14 melanoma
UACC-62 melanoma = test system: UACC-62 melanoma
NCI-H460 lung = test system: NCI-H460 lung
HCT-116 colon = test system: HCT-116 colon
HT29 colon = test system: HT29 colon
SN12C renal = test system: SN12C renal
OVCAR-8 ovarian = test system: OVCAR-8 ovarian
EKVX NSCLC = test system: EKVX NSCLC
OVCAR-3 ovarian = test system: OVCAR-3 ovarian
SF-268 CNS = test system: SF-268 CNS
SNB-19 CNS = test system: SNB-19 CNS
SW-620 colon = test system: SW-620 colon
PC-3 prostate = test system: PC-3 prostate
HOP-62 NSCLC = test system: HOP-62 NSCLC
RXF 393 renal = test system: RXF 393 renal
ACHN renal = test system: ACHN renal
HS 578T breast = test system: HS 578T breast
U251 CNS = test system: U251 CNS
MALME-3M melanoma = test system: MALME-3M melanoma
UACC-257 melanoma = test system: UACC-257 melanoma
MDA-MB-435 = test system: MDA-MB-435
A498 renal = test system: A498 renal
HCC-2998 colon = test system: HCC-2998 colon
NCI-H226 lung = test system: NCI-H226 lung
KM12 colon = test system: KM12 colon
LOX IMVI melanoma = test system: LOX IMVI melanoma
NCI-H522 lung = test system: NCI-H522 lung
COLO 205 colon = test system: COLO 205 colon
SF-539 CNS = test system: SF-539 CNS
IGROV1 ovarian = test system: IGROV1 ovarian
CCRF-CEM leukemia = test system: CCRF-CEM leukemia
SK-MEL-5 melanoma = test system: SK-MEL-5 melanoma
NCI/ADR-RES ovarian = test system: NCI/ADR-RES ovarian
786-0 renal = test system: 786-0 renal
MOLT-4 leukemia = test system: MOLT-4 leukemia
NCI-H23 lung = test system: NCI-H23 lung
CAKI-1 renal = test system: CAKI-1 renal
DU-145 prostate = test system: DU-145 prostate
SK-OV-3 ovarian = test system: SK-OV-3 ovarian
HCT-15 colon = test system: HCT-15 colon
MCF7 breast = test system: MCF7 breast
OVCAR-4 ovarian = test system: OVCAR-4 ovarian
A549 NSCLC = test system: A549 NSCLC
K-562 leukemia = test system: K-562 leukemia
SF-295 CNS = test system: SF-295 CNS
SK-MEL-28 melanoma = test system: SK-MEL-28 melanoma

`Clc1ccc(-c2nc3c4c(-c5ccccc5)c(-c5ccccc5)n(Cc5ccccc5)c4ncn3n2)cc1` showed a GI50 (BT-549 breast) of 4.35 µM, a TGI (BT-549 breast) of 22.5 µM and a GI50 (RPMI-8226 leukemia) of 2.46 µM. For the same compound, the TGI (RPMI-8226 leukemia) was 8.69 µM, the GI50 (HL-60(TB) leukemia) was 3.08 µM and the TGI (HL-60(TB) leukemia) was 15.5 µM. It also gave a GI50 (MDA-MB-468 breast) of 2.84 µM, a TGI (MDA-MB-468 breast) of 10.3 µM and a GI50 (T-47D breast) of 3.5 µM. The TGI (T-47D breast) was 62.5 µM, the GI50 (TK-10 renal) was 19 µM and the TGI (TK-10 renal) was greater than 100 µM. It also gave a GI50 (HOP-92 NSCLC) of 1.9 µM, a TGI (HOP-92 NSCLC) of 9.53 µM and a GI50 (OVCAR-5 ovarian) of 21.3 µM. It also gave a TGI (OVCAR-5 ovarian) of 90.3 µM, a GI50 (SR leukemia) of 13 µM and a TGI (SR leukemia) of 36.5 µM. It also gave a GI50 (M14 melanoma) of 12 µM, a TGI (M14 melanoma) of 77.7 µM and a GI50 (UACC-62 melanoma) of 3.59 µM. For the same compound, the TGI (UACC-62 melanoma) was 15.2 µM, the GI50 (NCI-H460 lung) was 8.24 µM and the TGI (NCI-H460 lung) was 35.4 µM. The GI50 (HCT-116 colon) was 3.53 µM, the TGI (HCT-116 colon) was 35.2 µM and the GI50 (HT29 colon) was 6.18 µM. It also gave a TGI (HT29 colon) greater than 100 µM, a GI50 (SN12C renal) of 7.73 µM and a TGI (SN12C renal) of 46 µM. The GI50 (OVCAR-8 ovarian) was 12.5 µM, the TGI (OVCAR-8 ovarian) was greater than 100 µM and the GI50 (EKVX NSCLC) was 4.6 µM. It also gave a TGI (EKVX NSCLC) of 48.7 µM, a GI50 (OVCAR-3 ovarian) of 4.76 µM and a TGI (OVCAR-3 ovarian) greater than 100 µM. It also gave a GI50 (SF-268 CNS) of 12.2 µM, a TGI (SF-268 CNS) greater than 100 µM and a GI50 (SNB-19 CNS) of 4.8 µM. It also gave a TGI (SNB-19 CNS) greater than 100 µM, a GI50 (SW-620 colon) of 12.5 µM and a TGI (SW-620 colon) greater than 100 µM. It also gave a GI50 (PC-3 prostate) of 3.51 µM, a TGI (PC-3 prostate) of 97.3 µM and a GI50 (HOP-62 NSCLC) of 16.1 µM. The TGI (HOP-62 NSCLC) was 38.4 µM, the GI50 (RXF 393 renal) was 14.2 µM and the TGI (RXF 393 renal) was 39.9 µM. It also gave a GI50 (ACHN renal) of 20.8 µM, a TGI (ACHN renal) of 79.7 µM and a GI50 (HS 578T breast) of 9.38 µM. For the same compound, the TGI (HS 578T breast) was 38.2 µM, the GI50 (U251 CNS) was 4.58 µM and the TGI (U251 CNS) was 33.5 µM. For the same compound, the GI50 (MALME-3M melanoma) was 2.75 µM, the TGI (MALME-3M melanoma) was 9.5 µM and the GI50 (UACC-257 melanoma) was 4.17 µM. It also gave a TGI (UACC-257 melanoma) of 34.2 µM, a GI50 (MDA-MB-435) of 4.92 µM and a TGI (MDA-MB-435) of 71.3 µM. It also gave a GI50 (A498 renal) of 23 µM, a TGI (A498 renal) of 63 µM and a GI50 (HCC-2998 colon) of 6.37 µM. For the same compound, the TGI (HCC-2998 colon) was 39.7 µM, the GI50 (NCI-H226 lung) was 16.3 µM and the TGI (NCI-H226 lung) was 56.9 µM. The GI50 (KM12 colon) was 5.17 µM, the TGI (KM12 colon) was 36.5 µM and the GI50 (LOX IMVI melanoma) was 10.9 µM. The TGI (LOX IMVI melanoma) was 25.2 µM, the GI50 (NCI-H522 lung) was 5.95 µM and the TGI (NCI-H522 lung) was 43.7 µM. It also gave a GI50 (COLO 205 colon) of 4.66 µM, a TGI (COLO 205 colon) of 16.8 µM and a GI50 (SF-539 CNS) of 15.8 µM. For the same compound, the TGI (SF-539 CNS) was 33.5 µM, the GI50 (IGROV1 ovarian) was 8.02 µM and the TGI (IGROV1 ovarian) was 85.8 µM. For the same compound, the GI50 (CCRF-CEM leukemia) was 9.15 µM, the TGI (CCRF-CEM leukemia) was 51 µM and the GI50 (SK-MEL-5 melanoma) was 3.26 µM. For the same compound, the TGI (SK-MEL-5 melanoma) was 12.9 µM, the GI50 (NCI/ADR-RES ovarian) was 24.2 µM and the TGI (NCI/ADR-RES ovarian) was 97 µM. It also gave a GI50 (786-0 renal) of 12.6 µM, a TGI (786-0 renal) of 93.3 µM and a GI50 (MOLT-4 leukemia) of 11.7 µM. For the same compound, the TGI (MOLT-4 leukemia) was 58.2 µM, the GI50 (NCI-H23 lung) was 6.88 µM and the TGI (NCI-H23 lung) was 44.4 µM. For the same compound, the GI50 (CAKI-1 renal) was 21.4 µM, the TGI (CAKI-1 renal) was 89.2 µM and the GI50 (DU-145 prostate) was 19.1 µM. For the same compound, the TGI (DU-145 prostate) was greater than 100 µM, the GI50 (SK-OV-3 ovarian) was 12.8 µM and the TGI (SK-OV-3 ovarian) was 46.7 µM. It also gave a GI50 (HCT-15 colon) of 20.5 µM, a TGI (HCT-15 colon) greater than 100 µM and a GI50 (MCF7 breast) of 8.31 µM. The TGI (MCF7 breast) was 61.8 µM, the GI50 (OVCAR-4 ovarian) was 10.3 µM and the TGI (OVCAR-4 ovarian) was greater than 100 µM. It also gave a GI50 (A549 NSCLC) of 20.6 µM, a TGI (A549 NSCLC) greater than 100 µM and a GI50 (K-562 leukemia) of 4.84 µM. For the same compound, the TGI (K-562 leukemia) was greater than 100 µM, the GI50 (SF-295 CNS) was 11.5 µM and the TGI (SF-295 CNS) was 25.7 µM. It also gave a GI50 (SK-MEL-28 melanoma) of 5.33 µM and a TGI (SK-MEL-28 melanoma) of 47.1 µM.
